Assay results reported in patent US11260241B2, “Method of treating multiple sclerosis” (Wisconsin Alumni Research Foundation, priority 2010, dated 2022).
Marks after values point to notes of the source that are not given here.

Legend:
Format in all cases: in vivo, C57BL/6 mice
EAE = EAE model of MS induced with MOG35-55, daily clinical scoring; details: for Incidence: from 10 days before immunization, 25 days monitoring; for CDI / Day of Onset / Peak Severity: mean ± SD; for Peak Severity: score scale 0-5
[1] = Body weight monitoring (weight loss and toxicity)
Protocol: Beginning 10 days prior to immunization, mice were fed a purified 0.87% calcium diet delivering the indicated doses of either 25(OH)D3 or 1,25(OH)2D3. Treatment continued for the duration of the experiment. (A) Average clinical EAE scores were determined daily for vehicle, 25(OH)D3, and 1,25(OH)2D3-treated mice (n=15-17). (B) Mice were weighed weekly (±SD) throughout the study to monitor weight loss and toxicity. (C) Serum calcium levels (±SD) were determined at the end of the experiment using a clinical chemistry analyzer. (D) Serum 25(OH)D3 levels (±SD) were determined at the termination of the experiment. *P<0.05 compared to control group. Vitamin D toxicity is known to cause weight loss and a dramatic rise in serum calcium levels. To assess the effect of UV treatment on these parameters, mice were weighed at selected time intervals throughout the study, and serum calcium levels were determined at the termination of the experiment. […] Furthermore, there were no detected difference in serum calcium levels at either the end of the UVB-pretreatment period (data not shown) or at the termination of the experiment (FIG. 1C). In addition, serum 25(OH)D3 levels were determined both at the end of the UVB-pretreatment period and at the termination of the experiment. […] Corresponding levels of the 5.0 kJ/m^2 group remained elevated at the termination of the experiment.

[2] = Analysis of serum calcium levels; details: end of experiment, vehicle 10.1 mg/dl
Protocol: Blood samples were collected at the termination of the experiments and spun at 6000 rpm (2938 g) for 15 min, followed by a second spin at 14000 rpm (16883 g) for 1 min. Serum calcium levels were determined using the calcium L3K reagent (Genzyme Diagnostics, Charlottetown, PE Canada) and the ABX Pentra 400 clinical chemistry analyzer (Horiba-ABX Diagnostics, Irvine, Calif.).

[3] = Analysis of serum 25(OH)D3 levels (125I-radioimmunological assay); details: dietary administration 10, 500, 1000 μg/kg per day; termination of the experiment
Protocol: Blood samples were collected at selected time points throughout the experiment. Red blood cells were removed through two successive centrifugation steps as described above. Serum 25(OH)D3 levels were determined using a ^125I-radioimmunological assay following the manufacturer's instructions (DiaSorin, Stillwater, Minn.). Samples above the range of the standard curve were diluted prior to analysis. Radioactivity was quantified using a Cobra 5002 gamma scintillation counter (PerkinElmer, Shelton, Conn.).

[4] = 2.5 μg/kg per day in purified diet
[5] = 10 μg/kg per day in purified diet
[6] = 500 μg/kg per day in purified diet
[7] = 1000 μg/kg per day in purified diet

## C=C1/C(=C\C=C2/CCC[C@]3(C)[C@@H]([C@H](C)CCCC(C)(C)O)CC[C@@H]23)C[C@@H](O)C[C@@H]1O [1,25(OH)2D3, 1α,25-dihydroxyvitamin D3]
EAE; 2.5 μg/kg per day
  Induction of EAE: prevented the induction of EAE
EAE; [4]
  Incidence: 35% (6/17)†
  CDI: 4 ± 7
  Day of Onset: 20 ± 3
  Peak Severity: 2.3 ± 0.6
EAE; pilot studies, 2.5 μg/kg per day (data not shown)
  Clinical signs of EAE: dramatic suppression
[1]; mouse, in vivo
  Weight of the mice at the termination of the study: significant decrease

## C=C1CC[C@H](O)C/C1=C/C=C1\CCC[C@]2(C)[C@@H]([C@H](C)CCCC(C)(C)O)CC[C@@H]12 [25(OH)D3, 25-hydroxyvitamin D3]
EAE; 10 μg/kg per day
  Effect on incidence, onset, severity, or progression of EAE: no significant effect
EAE; [5]
  Incidence: 88% (15/17)
  CDI: 23 ± 16
  Day of Onset: 14 ± 3
  Peak Severity: 2.9 ± 0.9
EAE; 500 μg/kg per day
  Clinical EAE scores: slight suppression
EAE; [6]
  Incidence: 82% (14/17)
  CDI: 19 ± 12
  Day of Onset: 16 ± 4
  Peak Severity: 2.7 ± 0.6
EAE; 1000 μg/kg per day
  Suppression of EAE: modest suppression
EAE; [7]
  Incidence: 82% (14/17)
  CDI: 17 ± 11
  Day of Onset: 16 ± 3
  Peak Severity: 2.6 ± 0.6
[2]; 10 μg/kg per day in diet
  Serum calcium levels: 9.9 mg/dL
[2]; 500 μg/kg per day in diet
  Serum calcium levels: 12.9 mg/dL
[2]; 1000 μg/kg per day in diet
  Serum calcium levels: 14.2 mg/dL
[1]; 1000 μg/kg per day in diet
  Weight of the mice at the termination of the study: significant decrease
[3]
  Serum 25(OH)D3 levels: dose-dependent increase
